This note sets out measurements from PMC11874377, “Fungal-derived methyldeoxaphomins target Plasmodium falciparum segregation through the inhibition of PfActin1” (Proceedings of the National Academy of Sciences of the …, 2025).

Where “and” joins values, the source holds several entries; their conditions need not be identical. Equal entries are not always repeated. Where two headings read alike, the source gives them in different places.

Experiment [1] deals with P. falciparum chloroquine-sensitive line 3D7. Briefly: SYBR Green I-based antiplasmodial assay, asexual blood stage, 3D7. It counts as cell-based, Plasmodium falciparum. The method, then: The antiplasmodial activity of these analogs was assessed in P. falciparum asexual blood stage using a SYBR Green I-based assay. Compounds were tested in both the multidrug resistant line Dd2, and the chloroquine-sensitive line 3D7, to probe any potential for preexisting resistance. […] These methyldeoxaphomin analogs were also cross-screened for cytotoxicity in the human cell line HepG2 to determine their selectivity for the Plasmodium parasite. […] This effect was maintained with analog NPDG-F where both R1 and R2 were substituted with OH groups. […] In addition, the hydroxyl group at carbon 7 seems to be critical for function as a drastic loss of potency was found in NPDG-D as compared to B and C. […]
Plasmodium blood stage culture
Parasite culture in the Chakrabarti lab was maintained following a modified Trager and Jensen protocol (Trager & Jensen, 1976) as previously described (Lee et al., 2021) with RPMI 1640 with 25 mM HEPES pH 7.4, 26 mM NaHCO3, 15 mg/L hypoxanthine, 0.5% Albumax II, 25 mg/L gentamycin, and 2% dextrose. Parasites were grown with human A+ erythrocytes obtained from Florida OneBlood. Cultures were kept in an incubator with 5% […]
Antiplasmodial activity screening
SYBR Green I-based fluorescence assay was performed as previously described (Lee et al., 2021) following protocols by Smilkstein et. al. (Smilkstein et al., 2004). Asynchronous Dd2 parasites were added to serially diluted compounds and incubated for 72 h at 5% CO2, 95% air at 37°C. Plates were then frozen at -80°C, thawed, and incubated for one hour with 1x SYBR Green I in a lysis buffer (20 mM Tris-HCL, 0.08% saponin, 5 mM EDTA, and 0.8% Triton X-100). Fluorescence was then read on a Synergy Neo2 multimode reader (BioTek Winsooki, VT). […]

The subject of experiment [2] is P. berghei liver stage in HepG2 cells. Briefly: High content imaging liver stage screening. It counts as cell-based, Plasmodium berghei. The method, then: Given these findings, we sought to observe the effects of NPDG-F on hepatic merozoites to see whether they were similarly impacted. To this end, HepG2 cells were infected with P. berghei sporozoites expressing luciferase and seeded onto a microtiter plate with NPDG-F at 2 HPI. At 72 HPI, a high content imaging (HCI) readout of treated parasites was performed to observe the impact on parasite maturation and merozoite formation via the expression of liver stage maturation markers MSP1 and AMA1. […] Infected monolayers treated with 1.1 µM of methyldeoxaphomin NPDG-F from 2-55 HPI were immunolabeled to examine the localization of MSP1 and AMA1 relative to parasite DNA during the period of merozoite formation (Fig. 4G). […]
Parasite reduction ratio adapted from protocol by Sanz et al (Sanz et al., 2012). […] After 3 weeks, growth was determined via SYBR Green I staining. The PRR was calculated and graphed using Graphpad Prism version […]
To examine the impact of methyldeoxaphomin NDPG F on the Plasmodium liver stage, HepG2 cells were infected with a luciferase-expressing strain of P. berghei. […] At 48 HPI, luciferase expression was measured as described(Van Voorhis et al., 2016) and parasite growth was quantified. After 72 HPI, High content imaging was performed to observe the relative expression of MSP1 and AMA1, the size and quantity of exoerythrocytic form parasites, and the HepG2 area occupied. […]

As a reminder, the EC50 is the concentration that produces a half-maximal response. For `C=C1C(C)C2C(Cc3ccccc3)NC(=O)C23C(=O)C=CC(O)C(O)C(C)CC(C)CC=CC3C1O` (stereo not shown) [Methyldeoxaphomin NPDG-F], the EC50 in experiment [1] (Plasmodium falciparum, 3D7, abstract, read-out: EC50 in 3D7) is 290 nM; in experiment [1] (Plasmodium falciparum, 3D7, average ± SEM of three replicates, read-out: 3D7: Average EC50), 290 ± 30 nM; in experiment [1] (Plasmodium falciparum, 3D7, individual replicates, read-out: 3D7: EC50), 230 nM; in experiment [1] (Plasmodium falciparum, 3D7, means from triplicate experiments ± SEM, read-out: 3D7 EC50) it was 290 ± 30 nM; in experiment [1] (individual replicates, read-out: 3D7: EC50), 310 nM and 330 nM. For the same compound, in experiment [2] (1.1 µM from 2-55 HPI), the “effect on liver-stage parasite development” value is recorded as “developmental failure during schizogony”. For the same compound, in experiment [2] (72 HPI, added at 2 HPI), the “MSP1 positive exoerythrocytic form (EEF) parasites remaining in the monolayer” value was “sharp increase”.
